Test results reported in ChEMBL document CHEMBL1131172 (J Med Chem, 1998).

What was measured:
786-0 = test: inhibition of the growth of renal cancer(786-0) cell line; type: functional; details: Homo sapiens
A549 [1] = test: inhibition of the growth of non-small-cell lung cancer (A549/ATCC) cell line; type: functional; details: Homo sapiens
A549 [2] = test: Inhibition of the growth of non-small-cell lung cancer (A549/ATCC) cell line at 0.01 uM; type: functional; details: Homo sapiens
CAKI-1 = test: inhibition of the growth of renal cancer(CAKI-1) cell line; type: functional; details: Homo sapiens
DU-145 = test: inhibition of the growth of prostate cancer(DU-145) cell line; type: functional; details: Homo sapiens
HCT-15 [3] = test: Inhibition of the growth of colon cancer(HCT-15) cell line at 0.01 uM; type: functional; details: Homo sapiens
HCT-15 [4] = test: inhibition of the growth of colon cancer(HCT-15) cell line; type: functional; details: Homo sapiens
HCT-116 [5] = test: inhibition of the growth of colon cancer(HCT116) cell line; type: functional; details: Homo sapiens
HCT-116 [6] = test: Inhibition of the growth of colon cancer(HCT116) cell line at 0.01 uM; type: functional; details: Homo sapiens
IGROV-1 [7] = test: inhibition of the growth of ovarian cancer(IGROVI) cell line; type: functional; details: Homo sapiens
KM12 = test: inhibition of the growth of colon cancer(KM-12) cell line; type: functional; details: Homo sapiens
MOLT-4 = test: inhibition of the growth of leukemia (MOLT-4) cell line; type: functional; details: Homo sapiens
NCI/ADR-RES = test: inhibition of the growth of breast cancer (MCF7/ADR-RES) cell line; type: functional; details: Homo sapiens
M14 = test: inhibition of the growth of melanoma cancer (M14) cell line; type: functional; details: Homo sapiens
MDA-N [8] = test: inhibition of the growth of breast cancer(MDA-N) cell line; type: functional; details: Homo sapiens
MDA-N [9] = test: Inhibition of the growth of breast cancer(MDA-N) cell line at 0.01 uM; type: functional; details: Homo sapiens
MDA-MB-435 [10] = test: Inhibition of the growth of breast cancer (MDA-MB-435) cell line at 0.01 uM; type: functional; details: Homo sapiens
MDA-MB-435 [11] = test: inhibition of the growth of breast cancer (MDA-MB-435) cell line; type: functional; details: Homo sapiens
MCF7 = test: inhibition of the growth of breast cancer (MCF-7) cell line; type: functional; details: Homo sapiens
NCI-H460 [12] = test: inhibition of the growth of non-small-cell lung cancer (NCI-H460) cell line; type: functional; details: Homo sapiens
NCI-H522 = test: inhibition of the growth of non-small-cell lung cancer (NCI-H522) cell line; type: functional; details: Homo sapiens
NCI-H322M = test: inhibition of the growth of non-small-cell lung cancer (NCI-H322M) cell line; type: functional; details: Homo sapiens
OVCAR-8 [13] = test: inhibition of the growth of ovarian cancer(OVCAR-8) cell line; type: functional; details: Homo sapiens
NCI-H460 [14] = test: Inhibition of the growth of non-small-cell lung cancer (NCI-H460) cell line at 0.01 uM; type: functional; details: Homo sapiens
NCI-H23 [15] = test: inhibition of the growth of non-small-cell lung cancer (NCI-H23) cell line; type: functional; details: Homo sapiens
NCI-H23 [16] = test: Inhibition of the growth of non-small-cell lung cancer (NCI-H23) cell line at 0.01 uM; type: functional; details: Homo sapiens
RPMI-8226 [17] = test: Inhibition of the growth of leukemia (RPMI-8226) cell line at 0.01 uM; type: functional; details: Homo sapiens
RPMI-8226 [18] = test: inhibition of the growth of leukemia (RPMI-8226) cell line; type: functional; details: Homo sapiens
SF-268 [19] = test: Inhibition of the growth of CNS cancer(SF-268) cell line at 0.01 uM; type: functional; details: Homo sapiens
SF-268 [20] = test: inhibition of the growth of CNS cancer(SF-268) cell line; type: functional; details: Homo sapiens
SF-295 [21] = test: inhibition of the growth of CNS cancer(SF-295) cell line; type: functional; details: Homo sapiens
SF-295 [22] = test: Inhibition of the growth of CNS cancer(SF-295) cell line at 0.01 uM; type: functional; details: Homo sapiens
SNB-19 [23] = test: inhibition of the growth of CNS cancer(SNB-19) cell line; type: functional; details: Homo sapiens
SNB-19 [24] = test: Inhibition of the growth of CNS cancer(SNB-19) cell line at 0.01 uM; type: functional; details: Homo sapiens
SF-539 = test: inhibition of the growth of CNS cancer(SF-539) cell line; type: functional; details: Homo sapiens
SR = test: inhibition of the growth of leukemia(SR) cell line; type: functional; details: Homo sapiens
SK-MEL-5 [25] = test: inhibition of the growth of melanoma cancer (SK-MEL-5) cell line; type: functional; details: Homo sapiens
SK-MEL-5 [26] = test: Inhibition of the growth of melanoma cancer (SK-MEL-5) cell line at 0.01 uM; type: functional; details: Homo sapiens
UO-31 [27] = test: inhibition of the growth of renal cancer(UO-31) cell line; type: functional; details: Homo sapiens
UO-31 [28] = test: inhibition of the growth of renal cancer(UO-31) cell line at 0.01 uM; type: functional; details: Homo sapiens
IGROV-1 [29] = test: Inhibition of the growth of ovarian cancer(IGROVI) cell line at 0.01 uM; type: functional; details: Homo sapiens
OVCAR-8 [30] = test: Inhibition of the growth of ovarian cancer(OVCAR-8) cell line at 0.01 uM; type: functional; details: Homo sapiens
[31] = molecular target: T1, Bifunctional dihydrofolate reductase-thymidylate synthase (Toxoplasma gondii, UniProt Q07422)
T1 sequence (Q07422 whole entry): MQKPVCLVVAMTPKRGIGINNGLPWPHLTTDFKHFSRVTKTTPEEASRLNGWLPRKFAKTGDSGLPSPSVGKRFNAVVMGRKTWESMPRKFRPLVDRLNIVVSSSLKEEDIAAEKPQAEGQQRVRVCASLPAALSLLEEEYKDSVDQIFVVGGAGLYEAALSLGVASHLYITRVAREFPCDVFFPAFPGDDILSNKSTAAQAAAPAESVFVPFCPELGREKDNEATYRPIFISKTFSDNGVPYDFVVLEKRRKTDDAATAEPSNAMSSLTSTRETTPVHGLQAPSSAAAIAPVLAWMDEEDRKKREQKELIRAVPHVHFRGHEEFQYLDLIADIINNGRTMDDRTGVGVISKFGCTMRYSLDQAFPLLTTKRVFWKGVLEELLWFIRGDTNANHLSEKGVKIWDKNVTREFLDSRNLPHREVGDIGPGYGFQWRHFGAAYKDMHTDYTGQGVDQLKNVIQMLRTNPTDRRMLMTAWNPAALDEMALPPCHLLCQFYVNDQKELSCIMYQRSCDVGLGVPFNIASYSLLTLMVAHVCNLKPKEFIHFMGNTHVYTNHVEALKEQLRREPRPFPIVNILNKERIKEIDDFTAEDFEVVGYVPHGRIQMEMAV
Description: Inhibitory activity against dihydrofolate reductase (DHFR) from Toxoplasma gondii

Dihydrofolate reductase [32] = molecular target: T2, Dihydrofolate reductase (Pneumocystis carinii, UniProt P16184)
T2 sequence (P16184 whole entry): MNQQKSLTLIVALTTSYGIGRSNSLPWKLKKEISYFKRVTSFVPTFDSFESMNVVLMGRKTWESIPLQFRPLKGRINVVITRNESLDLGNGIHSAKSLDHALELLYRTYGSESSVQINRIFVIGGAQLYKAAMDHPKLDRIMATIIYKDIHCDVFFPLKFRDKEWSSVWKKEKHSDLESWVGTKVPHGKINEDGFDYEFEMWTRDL
Description: Inhibitory activity against dihydrofolate reductase (DHFR) from Pneumocystis carinii

Dihydrofolate reductase [33] = molecular target: T3, Dihydrofolate reductase (Rattus norvegicus, UniProt Q920D2)
T3 sequence (Q920D2 whole entry): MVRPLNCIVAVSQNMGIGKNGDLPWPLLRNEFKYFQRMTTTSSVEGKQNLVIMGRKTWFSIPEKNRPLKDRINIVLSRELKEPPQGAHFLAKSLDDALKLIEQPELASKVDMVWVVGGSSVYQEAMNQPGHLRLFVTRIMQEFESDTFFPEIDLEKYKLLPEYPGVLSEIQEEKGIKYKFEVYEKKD
Description: Inhibitory activity against dihydrofolate reductase (DHFR) from rat liver

COc1cc(N(C)c2ccc3nc(N)nc(N)c3n2)cc(OC)c1OC
GI50 (786-0): 20 nM | GI50 (A549 [1]): < 10 nM | inhibition at 0.01 µM (A549 [2]): 67% | GI50 (CAKI-1): 10 nM | GI50 (DU-145): 220 nM | inhibition at 0.01 µM (HCT-15 [3]): 57% | GI50 (HCT-15 [4]): < 10 nM | GI50 (HCT-116 [5]): < 10 nM | inhibition at 0.01 µM (HCT-116 [6]): 76% | GI50 (IGROV-1 [7]): < 10 nM | GI50 (KM12): 40 nM | GI50 (MOLT-4): 40 nM | GI50 (NCI/ADR-RES): 10 nM | GI50 (M14): 20 nM | GI50 (MDA-N [8]): < 10 nM | inhibition at 0.01 µM (MDA-N [9]): 58% | inhibition at 0.01 µM (MDA-MB-435 [10]): 56% | GI50 (MDA-MB-435 [11]): < 10 nM | GI50 (MCF7): 40 nM | GI50 (NCI-H460 [12]): < 10 nM | GI50 (NCI-H522): 30 nM | GI50 (NCI-H322M): 11000 nM | GI50 (OVCAR-8 [13]): < 10 nM | inhibition at 0.01 µM (NCI-H460 [14]): 79% | GI50 (NCI-H23 [15]): < 10 nM | inhibition at 0.01 µM (NCI-H23 [16]): 51% | inhibition at 0.01 µM (RPMI-8226 [17]): 56% | GI50 (RPMI-8226 [18]): < 10 nM | inhibition at 0.01 µM (SF-268 [19]): 61% | GI50 (SF-268 [20]): < 10 nM | GI50 (SF-295 [21]): < 10 nM | inhibition at 0.01 µM (SF-295 [22]): 53% | GI50 (SNB-19 [23]): < 10 nM | inhibition at 0.01 µM (SNB-19 [24]): 53% | GI50 (SF-539): 20 nM | GI50 (SR): 30 nM | GI50 (SK-MEL-5 [25]): < 10 nM | inhibition at 0.01 µM (SK-MEL-5 [26]): 60% | GI50 (UO-31 [27]): < 10 nM | inhibition at 0.01 µM (UO-31 [28]): 65% | inhibition at 0.01 µM (IGROV-1 [29]): 52% | inhibition at 0.01 µM (OVCAR-8 [30]): 57% | IC50 [31]: 7.6 nM | IC50 (Dihydrofolate reductase [32]): 21 nM | IC50 (Dihydrofolate reductase [33]): 3.7 nM
